Results as given in patent publication US20020128256A1, “Methods for the treatment or prevention of inflammatory diseases characterized by abnormal cell proliferation” (priority 1997, published 2002).

Experiments:
[1] = system: NIH 3T3 mouse fibroblast cells; assay: Mitogenic Assay (mitogen-induced cell proliferation); type: cell-based
[2] = molecular target: T1, Gardos channel of erythrocytes (Homo sapiens, UniProt O15554); assay: Gardos Channel Assay; type: cell-based
T1 construct: endogenous in cells; host or cells: erythrocytes

[3] = molecular target: T2, red cell Gardos channel (Mus musculus, UniProt O89109); details: oral administration; cited from earlier work
T2 construct: host or cells: red cells of SAD mouse

[4] = system: normal and cancer cell lines; details: cited from earlier work
[5] = system: MM-RU human melanoma cells; details: SCID mice, daily administration; cited from earlier work
[6] = molecular target: T3, Gardos channel (Homo sapiens, UniProt O15554); parameters: host or cells: sickle erythrocytes (printed for Clotrimazole only); details: in vitro, sickle erythrocytes; cited from earlier work
[7] = molecular target: T3, Gardos channel; parameters: reduces erythrocyte dehydration in patients with sickle cell disease; host or cells: erythrocytes of patients; details: oral therapy; cited from earlier work
[8] = system: HeLa; assay: SRB antiproliferative assay, HeLa; type: cell-based; details: HeLa (Cervical); 5% FCS, 5 Day Incubation; read-out: SRB assay IC50
Method: (§1) The antiproliferative assays described herein were performed using standard aseptic procedures and universal precautions for the use of tissues. Cells were propagated using RPMI 1640 media (Gibco) containing 2% N 5% fetal calf serum (Biowhittaker) at 37° C., 5% CO2 and 95% humidity. The cells were passaged using Trypsin (Gibco). Prior to addition of test compound, the cells were harvested, the cell number counted and seeded at 10,000 cells/well in 100 μl 5% fetal calf serum (FCS) containing RPMI medium in 96-well plates and incubated overnight at 37° C., 5% CO2 and 95% humidity.
(§2) Following incubation, the cellular protein was determined with the ulforhodamine B (SRB) assay (Skehan P et al., 1990, J. Natl. Cancer Inst. 82:1107-1112).

[9] = system: CaSki; assay: SRB antiproliferative assay, CaSki; type: cell-based; details: CaSki (Cervical); 5% FCS, 5 Day Incubation; read-out: SRB assay IC50
Method: as §1, §2

[10] = system: MDA-MB-231; assay: SRB antiproliferative assay, MDA-MB-231; type: cell-based; details: MDA-MB-23 (Breast); 5% FCS, 5 Day Incubation; read-out: SRB assay IC50
[11] = system: MCF7; assay: SRB antiproliferative assay, MCF7; type: cell-based; details: MCF7 (Breast); 5% FCS, 5 Day Incubation; read-out: SRB assay IC50
Method: as §1, §2

[12] = system: A549; assay: SRB antiproliferative assay, A549; type: cell-based; details: A549 (Lung); 5% FCS, 5 Day Incubation; read-out: SRB assay IC50
Method: as §1, §2

[13] = system: HTB174; assay: SRB antiproliferative assay, HTB174; type: cell-based; details: HTB174 (Lung); 5% FCS, 5 Day Incubation; read-out: SRB assay IC50
Method: as §1, §2

[14] = system: HEPG2; assay: SRB antiproliferative assay, HEPG2; type: cell-based; details: HEPG2 (Hepatocel); 5% FCS, 5 Day Incubation; read-out: SRB assay IC50
Method: as §1, §2

[15] = system: DU-145; assay: SRB antiproliferative assay, DU-145; type: cell-based; details: DU-145 (Prostate); 5% FCS, 5 Day Incubation; read-out: SRB assay IC50
Method: as §1, §2

[16] = system: SK-MEL-28; assay: SRB antiproliferative assay, SK-MEL-28; type: cell-based; details: SK-MEL-28 (Melanoma); 5% FCS, 5 Day Incubation; read-out: SRB assay IC50
Method: as §1, §2

[17] = system: MMRU; assay: SRB antiproliferative assay, MMRU; type: cell-based, human; details: MMRU (Melanoma); 5% FCS, 5 Day Incubation; read-out: SRB assay IC50
Method: Cells were propagated using RPMI 1640 media (Gibco) containing 2% N 5% fetal calf serum (Biowhittaker) at 37° C., 5% CO2 and 95% humidity. The cells were passaged using Trypsin (Gibco). Prior to addition of test compound, the cells were harvested, the cell number counted and seeded at 10,000 cells/well in 100 μl 5% fetal calf serum (FCS) containing RPMI medium in 96-well plates and incubated overnight at 37° C., 5% CO2 and 95% humidity.
as §2

[18] = system: HT29; assay: SRB antiproliferative assay, HT29; type: cell-based; details: HT29 (Colon); 5% FCS, 5 Day Incubation; read-out: SRB assay IC50
Method: as §1, §2

[19] = system: HCT-15; assay: SRB antiproliferative assay, HCT-15; type: cell-based; details: HCT-15 (Colon); 5% FCS, 5 Day Incubation; read-out: SRB assay IC50
Method: as §1, §2

[20] = system: ACHN; assay: SRB antiproliferative assay, ACHN; type: cell-based; details: ACHN (Renal); 5% FCS, 5 Day Incubation; read-out: SRB assay IC50
Method: as §1, §2

[21] = system: U118MG; assay: SRB antiproliferative assay, U118MG; type: cell-based; details: U118MG (CNS); 5% FCS, 5 Day Incubation; read-out: SRB assay IC50
Method: as §1, §2

[22] = system: SK-OV-3; assay: SRB antiproliferative assay, SK-OV-3; type: cell-based; details: SK-OV-3 (Ovary); 5% FCS, 5 Day Incubation
Method: as §1, §2

[23] = system: HUVEC; assay: SRB assay, normal cells HUVEC; type: cell-based, human; details: HUVEC (Normal human); 5% FCS, 5 Day Incubation; read-out: SRB assay IC50
Method: as §1, §2

[24] = system: GM; assay: SRB assay, normal cells GM; type: cell-based, human; details: GM (Normal human); 5% FCS, 5 Day Incubation; read-out: SRB assay IC50
Method: as §1, §2

[25] = system: 3T3; assay: SRB assay, normal cells 3T3; type: cell-based, mouse; details: 3T3 (Normal mouse); 5% FCS, 5 Day Incubation; read-out: SRB assay IC50
Method: as §1, §2

[26] = system: L929; assay: SRB assay, normal cells L929; type: cell-based, mouse; details: L929 (Normal mouse); 5% FCS, 5 Day Incubation; read-out: SRB assay IC50
Method: as §1, §2

T3 sequence (O15554 whole entry): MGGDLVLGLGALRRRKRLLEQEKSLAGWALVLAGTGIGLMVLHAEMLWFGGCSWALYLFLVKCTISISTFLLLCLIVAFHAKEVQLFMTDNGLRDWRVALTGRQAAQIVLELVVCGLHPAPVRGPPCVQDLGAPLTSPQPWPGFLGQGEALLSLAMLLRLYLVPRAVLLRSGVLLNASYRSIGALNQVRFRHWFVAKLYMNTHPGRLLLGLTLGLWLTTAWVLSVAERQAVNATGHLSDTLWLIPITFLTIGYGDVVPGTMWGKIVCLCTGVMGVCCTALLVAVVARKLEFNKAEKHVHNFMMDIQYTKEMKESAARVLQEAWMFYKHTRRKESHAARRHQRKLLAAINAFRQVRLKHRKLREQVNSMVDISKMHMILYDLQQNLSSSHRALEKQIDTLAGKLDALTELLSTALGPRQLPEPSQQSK
T1 sequence (O15554 whole entry): as above
T2 sequence (O89109 whole entry): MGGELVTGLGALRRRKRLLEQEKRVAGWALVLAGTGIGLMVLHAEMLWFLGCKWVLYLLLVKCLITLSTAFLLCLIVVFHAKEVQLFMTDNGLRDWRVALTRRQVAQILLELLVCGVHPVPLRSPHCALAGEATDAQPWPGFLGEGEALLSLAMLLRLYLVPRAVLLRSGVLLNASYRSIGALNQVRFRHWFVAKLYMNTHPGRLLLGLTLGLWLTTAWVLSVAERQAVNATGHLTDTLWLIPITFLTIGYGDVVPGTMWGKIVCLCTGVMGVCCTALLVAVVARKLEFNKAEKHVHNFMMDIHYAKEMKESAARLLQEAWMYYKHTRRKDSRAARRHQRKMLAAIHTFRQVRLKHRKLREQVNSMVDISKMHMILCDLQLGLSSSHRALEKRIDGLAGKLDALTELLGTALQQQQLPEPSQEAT

Clc1ccccc1C(c1ccccc1)(c1ccccc1)n1ccnc1 [Clotrimazole]
inhibition at 10 µM ([1]; Mus musculus, NIH3T3, measured at 10 μM compound, NIH 3T3 cells, read-out: Mitogenic Assay Inhibition (%)): 93% | inhibition at 10 µM ([2]; read-out: Gardos Channel Assay Inhibition (%)): 99.3% | Effect on red cells in SAD mouse [3]: inhibition of the red cell Gardos channel, increased red cell K^+ content, a decreased mean cell hemoglobin concentration (MCHC) and decreased cell density | Rate of cell proliferation in vitro [4]: inhibits the rate of cell proliferation of normal and cancer cell lines in a reversible and dose-dependent manner | Number of lung metastases [5]: significant reduction in the number of lung metastases | Ca2+-activated K+ transport and cell dehydration in sickle erythrocytes [6]: blocks Ca^2+-activated K^+ transport and cell dehydration in sickle erythrocytes | Effect in patients with sickle cell disease [7]: induces inhibition of the Gardos channel and reduces erythrocyte dehydration

6-Chloro-3,3-di(4′-chlorophenyl)-2-N-oxime-3,3-diphenylindane [Compound 11]
IC50 ([1]; NIH 3T3 mouse fibroblast cells, mitogen-induced proliferation, read-out: Mitogenic Assay IC50): 3.4 µM | Mitogenic Assay Inhibition (%) ([1]; measured at 10 μM compound, NIH 3T3 cells): 99.0% | Gardos Channel Assay Inhibition (%) ([2]; measured at 10 μM compound): 50.0% | IC50 [8]: 5.1 µM | IC50 [9]: 7 µM | IC50 [10]: > 10 µM | IC50 [11]: 4.4 µM | IC50 [12]: 8.8 µM | IC50 [13]: 5.9 µM | IC50 [14]: 5.8 µM | IC50 [15]: > 10 µM | IC50 [16]: 5.5 µM | IC50 [17]: 6.2 µM | IC50 [18]: 6.8 µM | IC50 [19]: 6.6 µM | IC50 [20]: > 10 µM | IC50 [21]: > 10 µM | IC50 [22]: > 10 µM | IC50 [23]: 6.4 µM | IC50 [24]: > 10 µM | IC50 [25]: > 10 µM | IC50 [26]: 8.6 µM
